Biological target: human RORgammaT-Ligand Binding Domain (LBD) (Homo sapiens (Human), UniProt P51449)
Assay: RORγ-Ligand Binding Domain TR-FRET Assay (co-activator peptide SRC1_2 recruitment)
Type: biochemical
Details: HIS-tagged RORγ-LBD 3 nM, biotinylated SRC1 LXXLL peptide 100 nM, incubated overnight at 4° C., 665 nm/615 nm ratio
How it was run: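 E. coli-expressed, Ni2+-purified HIS-tagged human RORγ-LBD at 3 nM final in 50 mM Tris pH 7.0, 50 mM KCl, 1 mM EDTA, 0.1 mM DTT, 100 μg/mL delipidated BSA. TR-FRET read-out of SRC1_2 co-activator peptide recruitment; compounds dispensed acoustically.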

human RORgammaT-Ligand Binding Domain (LBD), sequence (P51449 269-508): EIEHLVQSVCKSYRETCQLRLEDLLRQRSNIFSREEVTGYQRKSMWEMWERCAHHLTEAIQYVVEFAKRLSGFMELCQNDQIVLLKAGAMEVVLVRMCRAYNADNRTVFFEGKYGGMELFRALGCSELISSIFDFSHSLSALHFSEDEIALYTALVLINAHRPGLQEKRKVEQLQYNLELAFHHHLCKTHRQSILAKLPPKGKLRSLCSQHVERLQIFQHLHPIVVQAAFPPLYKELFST

| Compound | IC50 [µM] |
| --- | --- |
| C[C@H](C[C@H]1CN(S(=O)(=O)c2ccnc(C(F)(F)F)c2)c2cc(NC(=O)OC(C)(C)C(F)(F)F)ccc2O1)C(=O)O (single isomer, unassigned) [Example 6CZ, (R or S)-2-methyl-3-((S)-6-((((1,1,1-trifluoro-2-methylpropan-2-yl)oxy)carbonyl)amino)-4-((2-(trifluoromethyl)pyridin-4-yl)sulfonyl)-3,4-dihydro-2H-benzo[b][1,4]oxazin-2-yl)propanoic acid] | 0.0153 |
| CC(C)(OC(=O)Nc1ccc2c(c1)N(S(=O)(=O)c1ccc(Cl)c(Cl)c1)C[C@H](CCC(=O)O)O2)C(F)(F)F [Example 6AH, (S)-3-(4-((3,4-dichlorophenyl)sulfonyl)-6-((((1,1,1-trifluoro-2-methylpropan-2-yl)oxy)carbonyl)amino)-3,4-dihydro-2H-benzo[b][1,4]oxazin-2-yl)propanoic acid] | 0.00884 |
| C[C@@H](C[C@H]1CN(S(=O)(=O)c2cccc(OC(F)F)c2)c2cc(NC(=O)OC(C)(C)C(F)(F)F)ccc2O1)C(=O)O (single isomer, unassigned) [Example 6Co, (S or R)-3-((S)-4-((3-(difluoromethoxy)phenyl)sulfonyl)-6-((((1,1,1-trifluoro-2-methylpropan-2-yl)oxy)carbonyl)amino)-3,4-dihydro-2H-benzo[b][1,4]oxazin-2-yl)-2-methylpropanoic acid] | 0.00838 |
| C[C@@H](C[C@H]1CN(S(=O)(=O)c2ccnc(C(F)(F)F)c2)c2cc(NC(=O)OC(C)(C)C(F)(F)F)ccc2O1)C(=O)O (single isomer, unassigned) [Example 6DA, (R or S)-2-methyl-3-((S)-6-((((1,1,1-trifluoro-2-methylpropan-2-yl)oxy)carbonyl)amino)-4-((2-(trifluoromethyl)pyridin-4-yl)sulfonyl)-3,4-dihydro-2H-benzo[b][1,4]oxazin-2-yl)propanoic acid] | 0.0149 |
| CC(C)(OC(=O)Nc1ccc2c(c1)N(S(=O)(=O)c1cccc(C#N)c1)C[C@H](CCC(=O)O)O2)C(F)(F)F [Example 6L, (S)-3-(4-((3-cyanophenyl)sulfonyl)-6-((((1,1,1-trifluoro-2-methylpropan-2-yl)oxy)carbonyl)amino)-3,4-dihydro-2H-benzo[b][1,4]oxazin-2-yl)propanoic acid] | 0.011 |
| CCOc1sc(CC)nc1S(=O)(=O)N1C[C@H](CCC(=O)O)Oc2ccc(NC(=O)OC(C)(C)C(F)(F)F)cc21 [Example 6CC, 3-[(2S)-4-[(5-ethoxy-2-ethyl-1,3-thiazol-4-yl)sulfonyl]-6-{[(2,2,2-trifluoro-1,1-dimethylethoxy)carbonyl]amino}-3,4-dihydro-2H-1,4-benzoxazin-2-yl]propanoic acid] | 0.0124 |
| Cc1cccc(S(=O)(=O)N2C[C@H](C[C@@H](C)C(=O)O)Oc3ccc(NC(=O)OC(C)(C)C(F)(F)F)cc32)c1 (single isomer, unassigned) [Example 6CK, (S or R)-2-methyl-3-((S)-4-(m-tolylsulfonyl)-6-((((1,1,1-trifluoro-2-methylpropan-2-yl)oxy)carbonyl)amino)-3,4-dihydro-2H-benzo[b][1,4]oxazin-2-yl)propanoic acid] | 0.0145 |
| COc1cc(S(=O)(=O)N2C[C@H]([C@H]3C[C@@H]3C(=O)O)Oc3ccc(NC(=O)OC(C)(C)C(F)(F)F)cc32)ccc1F (single isomer, unassigned) [Example 22i, (1R,2S or 1R,2R or 1S,2S or 1S,2R)-2-((S)-4-((4-fluoro-3-methoxyphenyl)sulfonyl)-6-((((1,1,1-trifluoro-2-methylpropan-2-yl)oxy)carbonyl)amino)-3,4-dihydro-2H-benzo[b][1,4]oxazin-2-yl)cylcopropanecarboxylic acid] | 0.0224 |
| CCOc1nn(C(F)F)cc1S(=O)(=O)N1C[C@H](CCC(=O)O)Oc2ccc(NC(=O)OC(C)(C)C(F)(F)F)cc21 [Example 6AB, (S)-3-(4-((1-(difluoromethyl)-3-ethoxy-1H-pyrazol-4-yl)sulfonyl)-6-((((1,1,1-trifluoro-2-methylpropan-2-yl)oxy)carbonyl)amino)-3,4-dihydro-2H-benzo[b][1,4]oxazin-2-yl)propanoic acid] | 0.009 |
| CC(C)(OC(=O)Nc1ccc2c(c1)N(S(=O)(=O)c1ccc(F)c(C(F)(F)F)c1)C[C@H]([C@H]1C[C@@H]1C(=O)O)O2)C(F)(F)F [Example 22D, (1S,2S)-2-((S)-4-((4-fluoro-3-(trifluoromethyl)phenyl)sulfonyl)-6-((((1,1,1-trifluoro-2-methylpropan-2-yl)oxy)carbonyl)amino)-3,4-dihydro-2H-benzo[b][1,4]oxazin-2-yl)cyclopropanecarboxylic acid] | 0.00587 |
| CC(C)(OC(=O)Nc1ccc2c(c1)N(S(=O)(=O)c1cccc(S(C)(=O)=O)c1)C[C@H](CCC(=O)O)O2)C(F)(F)F [Example 6X, (S)-3-(4-((3-(methylsulfonyl)phenyl)sulfonyl)-6-((((1,1,1-trifluoro-2-methylpropan-2-yl)oxy)carbonyl)amino)-3,4-dihydro-2H-benzo[b][1,4]oxazin-2-yl)propanoic acid] | 0.015 |
| CC(C)(C[C@H]1CN(S(=O)(=O)c2c(Cl)nn3c2CCCC3)c2cc(NC(=O)OC(C)(C)C(F)(F)F)ccc2O1)C(=O)O [Example 12Y, 3-[(2S)-4-[(2-chloro-4,5,6,7-tetrahydropyrazolo[1,5-a]pyridin-3-yl)sulfonyl]-6-{[(2,2,2-trifluoro-1,1-dimethylethoxy)carbonyl]ami-no}-3,4-dihydro-2H-1,4-benzoxazin-2-yl]-2,2-dimethylpropanoic acid] | 0.0144 |
| COc1cc(S(=O)(=O)N2C[C@H](CCC(=O)O)Oc3ccc(NC(=O)OC(C)(C)C(F)(F)F)cc32)ccn1 [Example 6AV, (S)-4-((2-(2-carboxyethyl)-6-((((1,1,1-trifluoro-2-methylpropan-2-yl)oxy)carbonyl)amino)-2H-benzo[b][1,4]oxazin-4(3H)-yl)sulfonyl)-2-methoxypyridine] | 0.0241 |
| CCOc1sc(C2CC2)nc1S(=O)(=O)N1C[C@H](C[C@@H](C)C(=O)O)Oc2ccc(NC(=O)OC(C)(C)C(F)(F)F)cc21 (single isomer, unassigned) [Example 6BP, (R or S)-3-((S)-4-((2-cyclopropyl-5-ethoxythiazol-4-yl)sulfonyl)-6-((((1,1,1-trifluoro-2-methylpropan-2-yl)oxy)carbonyl)amino)-3,4-dihydro-2H-benzo[b][1,4]oxazin-2-yl)-2-methylpropanoic acid] | 0.0266 |
| COc1cc(S(=O)(=O)N2c3cc(NC(=O)OC(C)(C)C(F)(F)F)ccc3O[C@@H](CC(C)(C)C(=O)O)[C@H]2C)ccc1F [Example 27B, 3-[(2S,3R)-4-[(4-fluoro-3-methoxyphenyl)sulfonyl]-3-methyl-6-{[(2,2,2-trifluoro-1,1-dimethylethoxy)carbonyl]ami-no}-3,4-dihydro-2H-1,4-benzoxazin-2-yl]-2,2-dimethylpropanoic acid] | 0.0175 |
| C[C@@H](C[C@H]1CN(S(=O)(=O)c2cccc(C3CC3)c2)c2cc(NC(=O)OC(C)(C)C(F)(F)F)ccc2O1)C(=O)O (single isomer, unassigned) [Example 6CU, (S or R)-3-((S)-4-((3-cyclopropylphenyl)sulfonyl)-6-((((1,1,1-trifluoro-2-methylpropan-2-yl)oxy)carbonyl)amino)-3,4-dihydro-2H-benzo[b][1,4]oxazin-2-yl)-2-methylpropanoic acid] | 0.0178 |
| COc1cc(S(=O)(=O)N2C[C@H](CCC(=O)O)Oc3ccc(NC(=O)O[C@@H](C)C(C)(C)C)cc32)ccc1F (single isomer, unassigned) [Example 24C, 3-{(2S)-4-[(4-fluoro-3-methoxyphenyl)sulfonyl]-6-[({[(1S or 1R)-1,2,2-trimethylpropyl]oxy}carbonyl)amino]-3,4-dihydro-2H-1,4-benzoxazin-2-yl}propanoic acid] | 0.0038 |
| Cc1cc(S(=O)(=O)N2C[C@H](C[C@H](C(=O)O)C3CC3)Oc3ccc(NC(=O)OC(C)(C)C(F)(F)F)cc32)ccc1F (single isomer, unassigned) [Example 10X, (R or S)-2-cyclopropyl-3-((S)-4-((4-fluoro-3-methylphenyl)sulfonyl)-6-((((1,1,1-trifluoro-2-methylpropan-2-yl)oxy)carbonyl)amino)-3,4-dihydro-2H-benzo[b][1,4]oxazin-2-yl)propanoic acid] | 0.0328 |
| COc1cc(S(=O)(=O)N2c3cc(NC(=O)OC(C)(C)C(F)(F)F)ccc3O[C@H](CC(C)(C)C(=O)O)[C@@H]2C)ccc1F [Example 27A, 3-[(2R,3S)-4-[(4-fluoro-3-methoxyphenyl)sulfonyl]-3-methyl-6-{[(2,2,2-trifluoro-1,1-dimethylethoxy)carbonyl]ami-no}-3,4-dihydro-2H-1,4-benzoxazin-2-yl]-2,2-dimethylpropanoic acid] | 8.2 |
| CC(C)(OC(=O)Nc1cc(F)c2c(c1)N(S(=O)(=O)c1ccc(F)c(Cl)c1)C[C@H](CCC(=O)O)O2)C(F)(F)F [Example 29F, 3-[(2S)-4-[(3-chloro-4-fluorophenyl)sulfonyl]-8-fluoro-6-{[(2,2,2-trifluoro-1,1-dimethylethoxy)carbonyl]ami-no}-3,4-dihydro-2H-1,4-benzoxazin-2-yl]propanoic acid] | 0.0057 |
| Cc1ccc(S(=O)(=O)N2C[C@H]([C@@H]3C[C@@H]3C(=O)O)Oc3ccc(NC(=O)OC(C)(C)C(F)(F)F)cc32)cc1 (single isomer, unassigned) [Example 22F, (1S,2S or 1R,2R or 1S,2R or 1R,2S)-2-((S)-4-tosyl-6-((((1,1,1-trifluoro-2-methylpropan-2-yl)oxy)carbonyl)amino)-3,4-dihydro-2H-benzo[b][1,4]oxazin-2-yl)cylcopropanecarboxylic acid] | 0.0757 |

— patent publication US9783511B2, “Carbamate benzoxazine propionic acids and acid derivatives for modulation of RORgamma activity and the treatment of disease” (Merck Sharp & Dohme Corp., priority 2013, dated 2017)
